From patent US20260022116A1, “IMIDAZOPYRIDINE COMPOUNDS, PREPARATION THEREOF AND THERAPEUTIC USES THEREOF” (SANOFI, priority 2022, published 2026) come the findings set out here.

Structures can show the parent of a compound that is named as a salt.

The target of the first experiment is T1, ERK5 (Homo sapiens, UniProt Q13164). The experiment can be described thus: cell-based.
Target sequence in this assay (Q13164 whole entry): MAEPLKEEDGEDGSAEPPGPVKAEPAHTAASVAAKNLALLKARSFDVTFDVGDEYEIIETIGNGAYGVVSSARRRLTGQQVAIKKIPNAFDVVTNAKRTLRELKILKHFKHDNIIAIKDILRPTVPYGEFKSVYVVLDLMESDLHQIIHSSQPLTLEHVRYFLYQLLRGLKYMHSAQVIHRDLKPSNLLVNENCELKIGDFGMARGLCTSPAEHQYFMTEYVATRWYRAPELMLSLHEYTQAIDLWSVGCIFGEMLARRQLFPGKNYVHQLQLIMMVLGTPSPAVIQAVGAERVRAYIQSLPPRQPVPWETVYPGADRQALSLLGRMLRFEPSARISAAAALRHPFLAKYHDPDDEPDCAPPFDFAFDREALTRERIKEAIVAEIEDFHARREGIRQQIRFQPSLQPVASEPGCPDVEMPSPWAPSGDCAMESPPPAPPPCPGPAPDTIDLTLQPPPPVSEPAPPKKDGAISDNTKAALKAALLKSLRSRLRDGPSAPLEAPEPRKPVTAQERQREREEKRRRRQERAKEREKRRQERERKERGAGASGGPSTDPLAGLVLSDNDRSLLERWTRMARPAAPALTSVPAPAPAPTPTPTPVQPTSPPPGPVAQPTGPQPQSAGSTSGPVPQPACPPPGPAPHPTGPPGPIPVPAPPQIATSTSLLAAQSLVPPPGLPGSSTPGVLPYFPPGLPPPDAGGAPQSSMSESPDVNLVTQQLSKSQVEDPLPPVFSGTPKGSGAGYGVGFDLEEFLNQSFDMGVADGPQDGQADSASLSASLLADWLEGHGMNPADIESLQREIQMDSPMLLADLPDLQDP
Protocol: (§1) Two assays were performed to assess the ERK5 inhibitory activity of compounds of the Examples, a cell-based assay and a cell-free biochemical assay.
The renal cancer cell line SN12C was transduced by a lentivirus pGreenFire1 MEF2 EF1 Neo (ref TR030VA-N) from SBI using standard infection protocol. pGreenFire1 MEF2 EF1 Neo allows the expression of luciferase gene under the control of minimal promoter with MEF2 transcriptional response elements. Cells harboring the reporter construct were selected by geneticin treatment. The selected cells were then transposed by a piggyback based plasmid pCM4007 allowing the expression of constitutively activated MEK5DD under control of TREG3 promoter, a doxycycline regulated promoter. Transposed cells were selected by puromycin treatment. Upon doxycycline treatment (1 μg/ml) MEK5DD was expressed. MEK5DD activates ERK5 that phosphorylates MEF2C protein. Activated MEF2C protein can bind to its transcriptional response elements. Then the luciferase is expressed. In a 96-well plate (96F nuncleon ref137101 thermofisher), 50,000 cells were inoculated in 142.5 μl of RPMI medium containing 10% fetal calf serum, 1% glutamine, and 1 μg/ml doxycycline. […] The luciferase activity was measured using the Kit Bright Glo Luminescent Cell Assay Cat E2610 (Promega) according to the manufacturer's protocol. Luminescence was determined using 0.2 second reading/well using a Tecan SPARK. IC50 values were calculated using XLFIT5 for Microsoft Excel using method 205.
On to `Nc1cc(OC(F)(F)F)ccc1C(=O)N1CCC(c2ccnc3[nH]c(C4CNCC(F)(F)C4)nc23)CC1` (single isomer, unassigned) [Example 162, [2-amino-4-(trifluoromethoxy)phenyl]-[4-[2-[5,5-difluoro-3-piperidyl]-3H-imidazo[4,5-b]pyridin-7-yl]-1-piperidyl]methanone], for which half-maximal inhibition (IC50) was put at 0.261 µM. On the same count and under the same terms, as for `Nc1cc(OC(F)(F)F)ccc1C(=O)N1CCC(c2ccnc3[nH]c(C4CCOC4)nc23)CC1` (single isomer, unassigned) [Example 186, [2-amino-4-(trifluoromethoxy)phenyl]-[4-[2-[tetrahydrofuran-3-yl]-3H-imidazo[4,5-b]pyridin-7-yl]-1-piperidyl]methanone], the figure is 0.027 µM; as for `Nc1cc(OC(F)(F)F)ccc1C(=O)N1CCC(c2ccnc3[nH]c(C4CCOC4)nc23)CC1` (single isomer, unassigned) [Example 187, [2-amino-4-(trifluoromethoxy)phenyl]-[4-[2-[tetrahydrofuran-3-yl]-3H-imidazo[4,5-b]pyridin-7-yl]-1-piperidyl]methanone], 0.041 µM; as for `COC12CC(C(=O)N3CCC(c4ccnc5[nH]c(C6CCOCC6)nc45)CC3)(C1)C2` [Example 58, (3-Methoxy-1-bicyclo[1.1.1]pentanyl)-[4-(2-tetrahydropyran-4-yl-3H-imidazo[4,5-b]pyridin-7-yl)-1-piperidyl]methanone], over 10 µM. Still for that read-out and setting: as for `O=C(c1n[nH]c2ccccc12)N1CCC(c2ccnc3[nH]c(C4CCOCC4)nc23)CC1` [Example 78, 1H-indazol-3-yl-[4-(2-tetrahydropyran-4-yl-3H-imidazo[4,5-b]pyridin-7-yl)-1-piperidyl]methanone], the figure is 3.6 µM. Still for that read-out and setting: in the case of `O=C(c1cnn2c1NCCC2C(F)(F)F)N1CCC(c2ccnc3[nH]c(C4CCOCC4)nc23)CC1` (stereo not shown) [Example 79, [4-(2-tetrahydropyran-4-yl-3H-imidazo[4,5-b]pyridin-7-yl)-1-piperidyl]-[7-(trifluoromethyl)-4,5,6,7-tetrahydropyrazolo[1,5-a]pyrimidin-3-yl]methanone] it was 7.89 µM; in that of `O=C(c1cccc(N2CCCS2(=O)=O)c1)N1CCC(c2ccnc3[nH]c(C4CCOCC4)nc23)CC1` [Example 85, [3-(1,1-dioxo-1,2-thiazolidin-2-yl)phenyl]-[4-(2-tetrahydropyran-4-yl-3H-imidazo[4,5-b]pyridin-7-yl)-1-piperidyl]methanone], over 10 µM.

With `CC(Oc1ccc(C(F)(F)F)cc1Cl)C(=O)N1CCC(c2ccnc3[nH]c(C4CCOCC4)nc23)CC1` (stereo not shown) [Example 87, 2-[2-chloro-4-(trifluoromethyl)phenoxy]-1-[4-(2-tetrahydropyran-4-yl-3H-imidazo[4,5-b]pyridin-7-yl)-1-piperidyl]propan-1-one], the IC50 was over 10 µM. Still for that read-out and setting: in the case of `O=C(c1nn(-c2ccccc2C(F)(F)F)cc1O)N1CCC(c2ccnc3[nH]c(C4CCOCC4)nc23)CC1` [Example 89, [4-hydroxy-1-[2-(trifluoromethyl)phenyl]pyrazol-3-yl]-[4-(2-tetrahydropyran-4-yl-3H-imidazo[4,5-b]pyridin-7-yl)-1-piperidyl]methanone] it was 3.16 µM; in that of `Nc1c(C(=O)N2CCC(c3ccnc4[nH]c(C5CCOCC5)nc34)CC2)sc(C(F)(F)F)c1-c1ccccc1` [Example 92, [3-amino-4-phenyl-5-(trifluoromethyl)-2-thienyl]-[4-(2-tetrahydropyran-4-yl-3H-imidazo[4,5-b]pyridin-7-yl)-1-piperidyl]methanone], 2.25 µM. `O=C(C1CC(=O)N(c2ccc(F)c(F)c2)C1)N1CCC(c2ccnc3[nH]c(C4CCOCC4)nc23)CC1` (stereo not shown) [Example 107, 1-(3,4-difluorophenyl)-4-[4-(2-tetrahydropyran-4-yl-3H-imidazo[4,5-b]pyridin-7-yl)piperidine-1-carbonyl]pyrrolidin-2-one] displayed an IC50 of over 10 µM.

In the case of `Cc1cc2ncc(C(=O)N3CCC(c4ccnc5[nH]c(C6CCOCC6)nc45)CC3)c(N)n2n1` [Example 109, (7-amino-2-methyl-pyrazolo[1,5-a]pyrimidin-6-yl)-[4-(2-tetrahydropyran-4-yl-3H-imidazo[4,5-b]pyridin-7-yl)-1-piperidyl]methanone], the IC50 is 7.94 µM. The same measure, in the same setting: as for `O=C1CC(C(=O)N2CCC(c3ccnc4[nH]c(C5CCOCC5)nc34)CC2)CN1Cc1ccccc1Cl` (stereo not shown) [Example 110, 1-[(2-chlorophenyl)methyl]-4-[4-(2-tetrahydropyran-4-yl-3H-imidazo[4,5-b]pyridin-7-yl)piperidine-1-carbonyl]pyrrolidin-2-one], the figure is over 10 µM. Same read-out and setting: as for `O=C(C1CC(=O)N(c2ccc(F)cc2)C1)N1CCC(c2ccnc3[nH]c(C4CCOCC4)nc23)CC1` (stereo not shown) [Example 111, 1-(4-fluorophenyl)-4-[4-(2-tetrahydropyran-4-yl-3H-imidazo[4,5-b]pyridin-7-yl)piperidine-1-carbonyl]pyrrolidin-2-one], the figure is over 10 µM; as for `CCn1cc(N)c(C(=O)N2CCC(c3ccnc4[nH]c(C5CCOCC5)nc34)CC2)n1` [Example 115, (4-amino-1-ethyl-pyrazol-3-yl)-[4-(2-tetrahydropyran-4-yl-3H-imidazo[4,5-b]pyridin-7-yl)-1-piperidyl]methanone], over 10 µM; as for `O=C(C1CC12C(=O)Nc1ccccc12)N1CCC(c2ccnc3[nH]c(C4CCOCC4)nc23)CC1` (stereo not shown) [Example 117, 2-[4-(2-tetrahydropyran-4-yl-3H-imidazo[4,5-b]pyridin-7-yl)piperidine-1-carbonyl]spiro[cyclopropane-1,3′-indoline]-2′-one], over 10 µM. The same measure, in the same setting: as for `O=C(c1ccc(OC(F)(F)F)cc1)N1CCC(c2ccnc3[nH]c(-c4csc(-c5cc(Cl)ccc5O)n4)nc23)CC1` [Example 135, [4-[2-[2-(5-chloro-2-hydroxy-phenyl)thiazol-4-yl]-3H-imidazo[4,5-b]pyridin-7-yl]-1-piperidyl]-[4-(trifluoromethoxy)phenyl]methanone], the figure is over 10 µM; as for `CCn1c(=O)c(=O)[nH]c2cc(-c3nc4c(C5CCN(C(=O)c6ccc(OC(F)(F)F)cc6)CC5)ccnc4[nH]3)ccc21` [Example 139, 1-ethyl-3-hydroxy-6-[7-[1-[4-(trifluoromethoxy)benzoyl]-4-piperidyl]-3H-imidazo[4,5-b]pyridin-2-yl]quinoxalin-2-one], 3.27 µM. As for `CO[C@H]1CC[C@H](c2nc3c(C4CCN(C(=O)c5ccc(OC(F)(F)F)cc5)CC4)ccnc3[nH]2)CC1` [Example 153, (trans)-[4-(trifluoromethoxy)phenyl]-[4-[2-(4-methoxycyclohexyl)-3H-imidazo[4,5-b]pyridin-7-yl]-1-piperidyl]methanone;hydrochloride], the IC50 worked out at 0.195 µM. The same measure, in the same setting: as for `O=S(=O)(c1ccc(OC(F)(F)F)cc1)N1CCC(c2ccnc3[nH]c(C4CCOCC4)nc23)CC1` [Example 165, 2-tetrahydropyran-4-yl-7-[1-[4-(trifluoromethoxy)phenyl]sulfonyl-4-piperidyl]-3H-imidazo[4,5-b]pyridine], the figure is over 10 µM; as for `CC(C)(C)OC(=O)Nc1cc(OC(F)(F)F)ccc1C(=O)N1CCC(c2ccnc3[nH]c(C4CCOCC4)nc23)CC1` [Example 190, tert-butyl N-[2-[4-(2-tetrahydropyran-4-yl-3H-imidazo[4,5-b]pyridin-7-yl)piperidine-1-carbonyl]-5-(trifluoromethoxy)phenyl]carbamate], 0.979 µM. The same measure, in the same setting: in the case of `O=C(c1ccc(OC(F)(F)F)cc1)N1CCC(c2ccnc3[nH]c(-c4cnc5ccc(C(F)(F)F)cc5c4O)nc23)CC1` [Example 230, [4-[2-[4-hydroxy-6-(trifluoromethyl)-3-quinolyl]-3H-imidazo[4,5-b]pyridin-7-yl]-1-piperidyl]-[4-(trifluoromethoxy)phenyl]methanone] it was 6.48 µM.

The target of another experiment is T1, ERK5. Nature of the experiment: biochemical.
Target sequence in this assay (Q13164 55-347 limits assumed): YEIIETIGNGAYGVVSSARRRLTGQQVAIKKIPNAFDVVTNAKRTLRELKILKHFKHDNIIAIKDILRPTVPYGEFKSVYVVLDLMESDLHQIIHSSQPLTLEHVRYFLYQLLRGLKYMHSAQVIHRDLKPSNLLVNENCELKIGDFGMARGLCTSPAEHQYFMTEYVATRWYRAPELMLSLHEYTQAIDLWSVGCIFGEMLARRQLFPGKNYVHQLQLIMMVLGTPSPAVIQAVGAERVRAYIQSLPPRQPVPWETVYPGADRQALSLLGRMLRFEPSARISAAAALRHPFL
Protocol: as §1
An assay was performed to measure the capacity of each compound to inhibit ERK5 enzymatic activity. Compound potency was evaluated by Time-Resolved Forster Resonance Energy Transfer (FRET system). […] A mixture of 1 mM ATP and 1 μM biotinylated synthetic peptide was added (Biosyntan GmbH). This synthetic peptide represents amino acids 30-52 of Eukaryotic translation initiation factor 4E-binding protein 1 (see, e.g., the sequence under accession No. NP_004086.1) biotinylated at the N-terminus.
Compound `Nc1cc(S(F)(F)(F)(F)F)ccc1C(=O)N1CCC(c2c(F)cnc3[nH]c(C4CCCO4)nc23)CC1` (racemic) [Example 383, (rac)-[2-amino-4-(pentafluoro-λ^6-sulfanyl)phenyl]-[4-(6-fluoro-2-tetrahydrofuran-2-yl-3H-imidazo[4,5-b]pyridin-7-yl)-1-piperidyl]methanone] gave an IC50 of 0.385 µM. The same measure, in the same setting: in the case of `O=C(c1ccc(S(F)(F)(F)(F)F)cc1)N1CCC(c2c(F)cnc3[nH]c(C4CN(C(=O)O)C5COCC5O4)nc23)CC1` (racemic) [Example 455, (rac)-2-[6-fluoro-7-[1-[4-(pentafluoro-λ^6-sulfanyl)benzoyl]-4-piperidyl]-3H-imidazo[4,5-b]pyridin-2-yl]-2,3,4a,5,7,7a-hexahydrofuro[3,4-b][1,4]oxazine-4-carboxylic acid] it was 6.46 µM; in that of `O=C(c1ccc(OC(F)(F)F)cc1)N1CCC(c2c(F)cnc3[nH]c(C4CCC5(COC5)N(C(=O)O)C4)nc23)CC1` (racemic) [Example 461, (rac)-7-[6-fluoro-7-[1-[4-(trifluoromethoxy)benzoyl]-4-piperidyl]-3H-imidazo[4,5-b]pyridin-2-yl]-2-oxa-5-azaspiro[3.5]nonane-5-carboxylic acid], 0.244 µM.

Compound `O=C(c1ccc(S(F)(F)(F)(F)F)cc1)N1CCC(c2c(F)cnc3[nH]c(C4CCN(C5CC5)CC4)nc23)CC1` [Example 431, [4-[2-(1-cyclopropyl-4-piperidyl)-6-fluoro-3H-imidazo[4,5-b]pyridin-7-yl]-1-piperidyl]-[4-(pentafluoro-λ^6-sulfanyl)phenyl]methanone] yielded an IC50 of 0.535 µM. Against the preceding compound, the IC50 is about 2.2-fold higher. In the case of `O=C(c1ccc(S(F)(F)(F)(F)F)cc1)N1CCC(c2c(F)cnc3[nH]c([C@H]4C[C@@H](O)C4)nc23)CC1` [Example 446, (cis)-[4-[6-fluoro-2-(3-hydroxycyclobutyl)-3H-imidazo[4,5-b]pyridin-7-yl]-1-piperidyl]-[4-(pentafluoro-λ^6-sulfanyl)phenyl]methanone], the IC50 is 0.487 µM. On the same count and under the same terms, in the case of `O=C(c1ccc(S(F)(F)(F)(F)F)cc1)N1CCC(c2c(F)cnc3[nH]c([C@H]4C[C@H](O)C4)nc23)CC1` [Example 448, (trans)-[4-[6-fluoro-2-(3-hydroxycyclobutyl)-3H-imidazo[4,5-b]pyridin-7-yl]-1-piperidyl]-[4-(pentafluoro-λ^6-sulfanyl)phenyl]methanone] it was 0.175 µM.

Usually IC50 stands for the concentration at which inhibition is half-maximal. A high value points to a need for much substance.
